Consider eight compounds from publication PMC9542247 (Angewandte Chemie (International Ed. in English), 2022).

The test concerns P450Blt (CYP1251 C3). Nature of the test: Small scale enzymatic cyclisation. It is filed as biochemical, Micromonospora sp. MW-13. The conditions noted are these: for loss of P450Blt cyclisation activity compared to 1: fold reduction versus 1; for P450Blt-catalysed cyclisation, result in words: small scale enzymatic cyclisation, LCMS.

Non-standard residues stand in square brackets, D forms with d. Residues, ends and D or L forms follow the SMILES beside them. No end group written: not given here.

For `CSCC[C@H](N)C(=O)N[C@@H](CCCNC(=N)N)C(=O)N[C@@H](Cc1ccc(O)cc1)C(=O)N[C@@H](CC(C)C)C(=O)N[C@H](Cc1c[nH]cn1)C(=O)O` [compound 17] (H-MRYL[dH]-OH), where the note is “relative to 1”, the “conversion relative to that of 1” value is given as more than 10%.

As to MNYLH-OH [compound 6], the “loss of P450Blt cyclisation activity compared to 1” value is reported as “≈ 2 fold”. For the compound MRYLW [compound 24], the “P450Blt-catalysed cyclisation, result in words” value (“P450Blt-catalysed cyclisation” below) is given as “very effective”. Besides, under “relative to 1”, the “level of cyclisation as fraction of that of 1” value is 2/3.

Take MRYWH-OH [compound 8]: the “P450Blt-catalysed cyclisation” value is reported as “almost totally abolished activity”.

As to MSYDH-OH [compound 7], the “P450Blt-catalysed cyclisation” value was “no further reduction in cyclisation than for 5 alone”. In the case of MSYLH-OH [compound 5], the “loss of P450Blt cyclisation activity compared to 1” value was “≈ 6 fold”. RYLH-OH [compound 2]: the “P450Blt-catalysed cyclisation” value was “significantly reduced activity”. Still for that read-out and setting: to fMRYLH-OH [f-1] belongs “did not affect cyclisation”.
